From article PMC8147293, “Library of Selenocyanate and Diselenide Derivatives as In Vivo Antichagasic Compounds Targeting Trypanosoma cruzi Mitochondrion” (Pharmaceuticals, 2021)

What was measured:
Trypanosoma cruzi = assay: Anti-T. cruzi IgG (ELISA) and splenomegaly in treated BALB/c mice; assay type: in vivo
Description: Otherwise, the immune status of the mice was evaluated—through the titer of total anti-T. cruzi IgG and the splenomegaly (Figure S1)—since it is a characteristic linked to the parasite load and the effectiveness ascribed to the potential candidates. […].
(§1) All in vivo assays for the evaluation of compounds in the acute and chronic CD (Scheme 1)—monitoring of parasitemia, immunosuppression, PCR [59, 60], ELISA [56], and clinical analysis [56]—were performed as previously described. PCR was based on the Spliced Leader (SL) intergenic region sequence of T. cruzi (for detailed description, see literature reported previously).
Figure S1. A) Anti-Trypanosoma cruzi immunoglobulin G levels, expressed in absorbance at 492 nm, at different days post-infection (dpi) for each group of mice treated during the acute and chronic phases of Chagas disease: control (untreated), benznidazole (BZN), 8, 10 and 15. Blank and uninfected mice are also […]
included. […] Values are the means of three mice ± standard deviation. (IS) immunosuppression. * Significant differences between untreated and treated mice for α =
0.05. B) Weight percentage of spleens in the chronic Chagas disease for each group of mice treated during the acute and chronic phases of the disease: control (untreated), benznidazole (BZN), 8, 10 and 15. Values are the means of three mice ± standard deviation. In brackets: reduction of splenomegaly in comparison to […]
(1 picture or pasted object on this page, not shown here)

Mammalian Vero cells = assay: Cytotoxicity test on Vero cells (resazurin); assay type: cell-based; details: Chlorocebus sabaeus, 72 h; Table 1; Vero cells, 48 h + 24 h resazurin; read-out: Toxicity IC50 Vero Cell
[1] = assay type: in vivo; details: BALB/c mice, 20 mg/kg per day for 5 days
Description: Finally, biochemical analyses were performed to assess the toxicity associated to the treatment of compound 8. Kidney, heart and liver biochemical markers were measured, including values from uninfected and BZN-treated mice (Table S2). […] The low toxicity allows compound 8 to be tested at higher doses, establishing an improved treatment schedule based on pharmacokinetics in order to reach a total parasite clearance.
as §1

[2] = system: Trypanosoma cruzi bloodstream trypomastigotes (BTs); assay: Screening against bloodstream trypomastigotes (resazurin); assay type: cell-based
Description: 2 × 10^6 Bloodstream trypomastigotes (BTs), obtained by cardiac puncture from infected BALB/c mice as previously described, were treated by adding the tested compounds at a concentration range from 50 to 0.1 µM in 96-well microplates (200 µL·well^−1) at 37 °C. After 24 h of treatment, resazurin sodium salt (Sigma-Aldrich) was added to be incubated for further 4 h. Finally, trypanocidal activity was determined following the same procedure as described to assess the trypanocidal activity in the epimastigotes. Each compound concentration was tested in triplicate in three independent experiments.

## FC(F)(F)c1ccc(C[Se][Se]Cc2ccc(C(F)(F)F)cc2)cc1 [compound 8]
Trypanosoma cruzi; from the beginning to the end of the in vivo timeline
  IgG levels in the acute treatment: very low IgG levels
Trypanosoma cruzi; treated BALB/c mice versus untreated, excluding IgG levels of chronic CD
  total anti-T. cruzi IgG levels and splenomegaly: significant reduction
Mammalian Vero cells
  CC50: 44.3 ± 2.7 µM
[1]
  death and body mass loss after treatment: none of the mice died nor lost more than 10% body mass
  kidney, heart and liver biochemical markers: disturbed 2 days after treatment
[2]; IC50 Vero cells/IC50 trypomastigotes
  Selectivity Index Trypomast.: 30
[2]; Trypanosoma cruzi, Table 1, bloodstream trypomastigotes, 24 h treatment + 4 h resazurin, read-out: Activity IC50 Trypomast.
  IC50: 1.5 ± 0.3 µM
